We go through 18 compounds from ChEMBL document CHEMBL1201862, “PubChem BioAssay data set” (2004).

Each structure is given as a SMILES string. Active and inactive are the calls of the source.

Data set [1] concerns the target Cytochrome P450 2C9 (Homo sapiens, UniProt P11712).
The target of data set [2] is Cytochrome P450 2C19 (Homo sapiens, UniProt P33261). Description: Cytochrome panel assay with activity outcomes. Panel member name: p450-cyp2c19 Compounds with AC50 equal or less than 10 uM are considered active. The class given is functional. Particulars: read-out: AC50.
Data set [3] concerns the target Nonstructural protein 1 (Influenza A virus, UniProt Q194T2). The class given is functional, Influenza A virus (A/California/07/2009(H1N1)).
The subject of data set [4] is H4. Description: Luminescence Cell-Based Dose Response HTS to Identify Activators of 5'UTR Stem-Loop Driven Prion Protein mRNA Translation in H4 Neuroglioblastoma Cells. [Related pubchem assays: 1829 (Project Summary), 1814 (Primary HTS)]. It counts as functional. Particulars: Homo sapiens.
Data set [5] in a line: Luminescence Cell-Based Dose Response HTS to Identify Activators of Luciferase Translation or Activity in H4 […] Cells. [Related pubchem assays: 1829 (Project Summary), 1814 (Primary HTS)]. The class given is functional.
Data set [6] is described as follows: growth suppression of beta-catenin-knockout colon cells, dose response, cell-based, HCT116, human colon tumor (AID 1045).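 Further: HCT116 colon tumor cells with beta catenin knocked out; cells exposed to compound for 60 hours.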 The class given is functional.
For data set [7], the target named is T1, Protein RecA (Mycobacterium tuberculosis, UniProt P9WHJ3).
T1 sequence (P9WHJ3 whole entry): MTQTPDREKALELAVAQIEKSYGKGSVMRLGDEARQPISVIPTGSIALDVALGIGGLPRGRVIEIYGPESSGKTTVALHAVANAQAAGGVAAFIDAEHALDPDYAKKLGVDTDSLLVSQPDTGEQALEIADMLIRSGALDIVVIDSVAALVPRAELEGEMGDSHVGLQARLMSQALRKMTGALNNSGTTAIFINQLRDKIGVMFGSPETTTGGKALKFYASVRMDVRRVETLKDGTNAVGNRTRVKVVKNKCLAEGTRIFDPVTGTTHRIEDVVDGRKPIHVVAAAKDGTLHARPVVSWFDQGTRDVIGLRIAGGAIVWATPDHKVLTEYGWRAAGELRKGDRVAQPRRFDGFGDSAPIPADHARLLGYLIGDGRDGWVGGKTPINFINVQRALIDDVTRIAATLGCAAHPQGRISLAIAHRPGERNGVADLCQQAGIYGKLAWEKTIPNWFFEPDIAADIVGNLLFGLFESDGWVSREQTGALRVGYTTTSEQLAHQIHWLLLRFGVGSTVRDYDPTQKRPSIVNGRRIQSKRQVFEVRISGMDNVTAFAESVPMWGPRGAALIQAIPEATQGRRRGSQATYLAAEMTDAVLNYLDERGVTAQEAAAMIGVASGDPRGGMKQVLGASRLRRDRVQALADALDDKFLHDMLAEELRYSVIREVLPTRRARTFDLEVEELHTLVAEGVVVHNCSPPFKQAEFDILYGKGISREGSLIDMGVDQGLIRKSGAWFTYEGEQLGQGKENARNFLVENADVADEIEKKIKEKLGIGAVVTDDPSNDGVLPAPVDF
Description: Fluorescence Cell-Free Homogeneous Dose Retest to Identify Inhibitors of RecA-Intein Splicing Activity. [Related pubchem assays (depositor defined):AID2097, AID2223, AID489010, AID492950]. The class given is functional.

In data set [8] the target is T2, Replicative DNA helicase DnaB (Mycobacterium tuberculosis, UniProt P9WMR3).
T2 sequence (P9WMR3 whole entry): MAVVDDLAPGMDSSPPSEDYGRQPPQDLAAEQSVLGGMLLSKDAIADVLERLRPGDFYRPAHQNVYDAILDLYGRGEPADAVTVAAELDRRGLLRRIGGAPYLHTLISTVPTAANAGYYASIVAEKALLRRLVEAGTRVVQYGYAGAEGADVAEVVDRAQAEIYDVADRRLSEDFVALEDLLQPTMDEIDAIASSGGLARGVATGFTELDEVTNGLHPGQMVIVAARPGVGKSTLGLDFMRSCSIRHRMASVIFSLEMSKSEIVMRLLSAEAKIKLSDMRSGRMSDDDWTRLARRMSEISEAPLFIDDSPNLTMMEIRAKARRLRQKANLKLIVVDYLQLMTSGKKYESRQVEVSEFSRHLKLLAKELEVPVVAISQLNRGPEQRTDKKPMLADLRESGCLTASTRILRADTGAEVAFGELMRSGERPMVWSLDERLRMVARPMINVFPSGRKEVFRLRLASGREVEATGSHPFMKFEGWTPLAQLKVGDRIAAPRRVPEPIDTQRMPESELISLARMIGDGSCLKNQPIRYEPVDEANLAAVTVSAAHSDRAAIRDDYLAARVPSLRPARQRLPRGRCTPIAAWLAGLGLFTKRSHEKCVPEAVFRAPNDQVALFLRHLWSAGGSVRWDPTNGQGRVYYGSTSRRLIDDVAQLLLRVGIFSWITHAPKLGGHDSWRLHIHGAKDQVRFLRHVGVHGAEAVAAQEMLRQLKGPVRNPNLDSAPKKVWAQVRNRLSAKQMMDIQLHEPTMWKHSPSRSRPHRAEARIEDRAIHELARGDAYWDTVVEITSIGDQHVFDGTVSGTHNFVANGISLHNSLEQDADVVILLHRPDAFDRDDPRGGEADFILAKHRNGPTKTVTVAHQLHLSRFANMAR
Description: DnaB intein splicing inhibitors, dose response, biochemical, cell-free fluorescence (AID 449749). It counts as functional.

The test system of data set [9] is INS1. Description: beta cell apoptosis inhibitors, cytokine rescue, dose response, luminescence, retest (AID 449756).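 Further: cell death triggered by IL-1 beta plus TNF-alpha plus IFN-gamma mixture; protective hits raise ATP signal compared with cytokine alone wells.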 The note with it: Rattus norvegicus. It counts as functional, cell-based.
Data set [10] can be described thus: growth suppression of PTEN-null colon cells, dose response, cell-based, HCT116 PTEN knockout (AID 1047).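 Further: HCT116 colon tumor cells with PTEN knocked out; cells exposed to compound for 60 hours before readout; potency for loss of cell viability measured by luminescence.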 The class given is functional.
The target of data set [11] is T3, RNA-binding protein pos-1 (Caenorhabditis elegans, UniProt G5EF15).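 Further: purified POS-1 fused to maltose binding protein made in E. coli; potency of compounds blocking POS-1 binding to fluorescent RNA.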
T3 sequence (G5EF15 whole entry): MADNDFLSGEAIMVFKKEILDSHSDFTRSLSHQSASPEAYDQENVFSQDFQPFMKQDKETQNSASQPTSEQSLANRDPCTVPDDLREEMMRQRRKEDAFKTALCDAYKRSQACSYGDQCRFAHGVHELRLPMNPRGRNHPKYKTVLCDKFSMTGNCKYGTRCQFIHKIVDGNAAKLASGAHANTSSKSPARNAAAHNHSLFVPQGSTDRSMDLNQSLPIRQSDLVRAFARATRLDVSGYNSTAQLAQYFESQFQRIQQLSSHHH
Description: inhibitors of POS-1/mex-3 RNA binding, dose response, biochemical, fluorescence polarization (AID 1964). (Fluorescence polarisation rises when a labelled molecule tumbles more slowly, as on binding a larger partner.)

In data set [12] the target is T4, Zinc finger protein mex-5 (Caenorhabditis elegans, UniProt Q9XUB2).
T4 sequence (Q9XUB2 whole entry): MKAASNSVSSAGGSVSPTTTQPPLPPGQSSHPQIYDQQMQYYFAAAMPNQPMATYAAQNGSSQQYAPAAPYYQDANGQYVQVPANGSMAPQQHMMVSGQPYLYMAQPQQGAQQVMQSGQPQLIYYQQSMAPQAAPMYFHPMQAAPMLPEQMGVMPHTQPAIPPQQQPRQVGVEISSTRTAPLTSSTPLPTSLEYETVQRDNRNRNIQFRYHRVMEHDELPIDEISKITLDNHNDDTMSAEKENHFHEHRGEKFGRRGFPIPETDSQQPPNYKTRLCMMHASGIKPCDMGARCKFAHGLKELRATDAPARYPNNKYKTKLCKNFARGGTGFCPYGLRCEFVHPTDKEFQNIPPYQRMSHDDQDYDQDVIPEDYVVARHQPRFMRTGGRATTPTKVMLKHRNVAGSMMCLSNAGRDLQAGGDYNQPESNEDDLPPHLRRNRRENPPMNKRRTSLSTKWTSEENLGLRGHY
Description: MEX-5/TCR-2 RNA interaction inhibitors, dose response, biochemical, C. elegans, fluorescence polarization (AID 1960).

Data set [13] can be described thus: Luminescence Cell-Based Dose Retest to Confirm Inhibitors of Cancer Stem Cells. [Related pubchem assays (depositor defined):AID2717, AID2721]. The class given is functional. The note with it: Homo sapiens.
The nature of data set [14]: Luminescence Cell-Based Dose Response HTS to Identify Inhibitors of 5'UTR Stem-Loop Driven Prion Protein mRNA Translation in H4 Neuroglioblastoma Cells. [Related pubchem assays: 1827 (Project Summary), 1813 (Primary HTS)]. The class given is functional.
Data set [15] can be described thus: inhibitors of firefly luciferase expression or activity, dose response, H4 neuroglioma cells, luminescence (AID 1990). The class given is functional, cell-based.
Data set [16] can be described thus: Shn3 3'UTR reporter inhibitors, dose response, cell-based, Clone20 osteoblasts, firefly luciferase, cherry-picked (AID 624132).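 Further: firefly luciferase luminescence from reporter carrying the Shn3 3'UTR in osteoblasts.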 The class given is functional.
Data set [17] in a line: control 3'UTR Renilla luciferase suppression, dose response, counter-screen for Shn3 inhibitor project, cell-based, Clone20-Shn3RL, cherry-picked (AID 624133). It counts as functional.
Data set [18] can be described thus: HepG2 cell cytotoxicity, dose response, cytotoxicity control for Shn3 inhibitor project, CellTiter-Glo, cherry-picked (AID 624134). It counts as functional, cell-based. A general note: Cellular ATP, detected with luciferase, serves as a proxy for viable cell number.
Data set [19] is described as follows: inhibitors of SNCA 5'UTR-driven reporter translation, confirmation, H4 neuroglioma cells, luminescence (AID 1988). It counts as functional, cell-based.
Data set [20] can be described thus: microbe, parasite or virus in culture. The class given is functional. The note with it: Mycobacterium tuberculosis.

Chain of Cytochrome P450 2C19 (P33261 whole entry): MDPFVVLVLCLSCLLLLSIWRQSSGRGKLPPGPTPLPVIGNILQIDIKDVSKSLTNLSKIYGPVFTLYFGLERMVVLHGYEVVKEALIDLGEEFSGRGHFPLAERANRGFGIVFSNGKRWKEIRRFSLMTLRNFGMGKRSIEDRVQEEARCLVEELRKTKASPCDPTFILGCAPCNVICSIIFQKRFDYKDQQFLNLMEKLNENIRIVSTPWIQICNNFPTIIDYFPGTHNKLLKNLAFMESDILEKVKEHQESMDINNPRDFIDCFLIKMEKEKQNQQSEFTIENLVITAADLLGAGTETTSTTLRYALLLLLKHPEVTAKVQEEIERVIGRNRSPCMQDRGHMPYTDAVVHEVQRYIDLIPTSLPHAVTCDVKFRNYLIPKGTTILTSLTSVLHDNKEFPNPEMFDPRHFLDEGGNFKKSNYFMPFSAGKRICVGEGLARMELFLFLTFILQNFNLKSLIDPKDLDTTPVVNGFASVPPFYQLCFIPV
Chain of Cytochrome P450 2C9 (P11712 whole entry): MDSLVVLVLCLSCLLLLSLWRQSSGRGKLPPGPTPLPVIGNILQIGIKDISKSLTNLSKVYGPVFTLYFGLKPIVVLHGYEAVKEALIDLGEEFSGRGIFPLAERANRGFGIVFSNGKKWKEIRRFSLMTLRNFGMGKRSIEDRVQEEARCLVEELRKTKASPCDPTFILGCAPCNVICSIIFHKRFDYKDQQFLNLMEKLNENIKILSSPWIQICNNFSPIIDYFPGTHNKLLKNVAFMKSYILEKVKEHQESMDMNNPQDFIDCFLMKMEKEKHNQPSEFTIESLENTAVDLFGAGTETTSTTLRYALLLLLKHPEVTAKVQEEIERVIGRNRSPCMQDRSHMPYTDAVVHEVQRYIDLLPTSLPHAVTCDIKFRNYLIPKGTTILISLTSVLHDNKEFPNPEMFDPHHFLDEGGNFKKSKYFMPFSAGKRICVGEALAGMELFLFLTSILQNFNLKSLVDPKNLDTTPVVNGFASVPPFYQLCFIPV
Chain of Nonstructural protein 1 (Q194T2 whole entry): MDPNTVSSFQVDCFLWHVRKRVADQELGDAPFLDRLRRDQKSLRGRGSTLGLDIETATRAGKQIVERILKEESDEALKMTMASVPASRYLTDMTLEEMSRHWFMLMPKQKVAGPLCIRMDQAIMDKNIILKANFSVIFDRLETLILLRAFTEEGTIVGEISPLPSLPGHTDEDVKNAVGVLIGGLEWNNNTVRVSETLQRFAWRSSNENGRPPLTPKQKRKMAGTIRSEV

In the case of `O=C(Nc1nnc(SCc2c(Cl)cccc2Cl)s1)C1CCCO1` (configuration not stated), the AC50 entry in data set [1] was “inconclusive”; in [2], 14.1 µM (inconclusive).
For the compound `CC1=C/C(=N\Nc2ccccc2[N+](=O)[O-])CC(C)(C)C1`, the IC50 in data set [3] is 14.9 µM (active).
Take `CC(=O)c1ccc(Oc2ncnc3sccc23)cc1`: the values for the concentration giving a half-maximal response (EC50) in data set [4] and in data set [5] were 33.2 µM (active) and 9.03 µM (active), respectively.
Consider `N=c1c2c(-c3ccccc3)c(-c3ccccc3)n(Cc3ccco3)c2ncn1Cc1ccccc1`, for which the EC50 was 1.35 µM (active) in [6], 6.7 µM (active) in [7] and 1.68 µM (active) in [10]. For the same compound, the AC50 in data set [8] was 3.08 µM (active); in data set [9], 6.08 µM (active).
Turning to `CCCCCc1cc(=O)oc2c(C(CCN3CCCC3)c3ccc(N(C)C)cc3)c(OC)cc(OC)c12` (configuration not stated), the IC50 in data set [3] is 6.41 µM (active).
For the compound `COc1ccc(-c2nc(C#N)c(NCc3ccco3)o2)cc1`, the EC50 in data set [4] is 7.92 µM (active); in [5] it was 31.9 µM (active).
As to `COc1ccc(/C=C2\SC(=S)N(CCCC(=O)NC3CCCC3)C2=O)cc1OC`, the 50% effective concentration (EC50) in data set [11] was 57.5 µM (active); in [12] it was 55.7 µM (inconclusive).
Turning to `CCOc1ccccc1N/C=C(\C#N)c1nc2ccccc2n1C`, the EC50 in data set [4] and in data set [5] was > 120 µM (not active) each time.
Take `COc1ccc(C2C(C#N)=C(N)OC3=C2C(=O)CC(C)(C)C3)cc1` (configuration not stated): the EC50 in data set [11] was 69.7 µM (active); in [12], > 300 µM (not active).
As to `COc1ccc(Cc2nnc(N/N=C/c3ccccc3O)nc2O)cc1OC`, the IC50 in data set [3] was 1.42 µM (active). For the same compound, the AC50 in data set [9] was 0.834 µM (active); in data set [13], 3.66 µM (active).
As for `Cc1ccc(C)n1-c1ccc(C(=O)O)cc1`, the EC50 is 13.9 µM (active) in [11] and 20.5 µM (inconclusive) in [12].
With `COc1ccccc1C(CCNCc1ccc(N(C)C)cc1)c1ccc(OC(C)C)cc1` (configuration not stated), the half-inhibitory concentration (IC50) in data set [3] was 8.29 µM (active). For the same compound, the 50% effective concentration (EC50) was > 120 µM (not active) in data set [14], > 60 µM (not active) in data set [15] and 7.66 µM (active) in data set [19]. Also, the concentration at half-maximal activity (AC50) was 7.11 µM (active) in [9]; 6.48 µM (active) in data set [16]; 5.31 µM (active) in [13]; 12 µM (active) in data set [17]; 12.5 µM (active) in [18].
Turning to `COc1ccc(C2Oc3ccccc3C3=C2C(c2cccs2)n2ncnc2N3)cc1` (configuration not stated), the EC50 is 7.97 µM (active) in data set [6] and 8.88 µM (active) in data set [10]. Besides, the CC50 in data set [20] was 16.8 µM (active).
With `Cc1ccc(C(=O)NC(=S)Nc2ccc3c(c2)OCCO3)c(C)c1`, the AC50 entry in data set [1] was “inconclusive”; in data set [2], 17.8 µM (inconclusive).
Turning to `CCOC(=O)N1CCN(C2=Nc3cccc4cccc2c34)CC1`, the concentration giving a half-maximal response (EC50) in [11] is > 300 µM (not active); in data set [12], 60.2 µM (active).
As to `COc1ccc(OC)c(N2C(=O)NC(=O)/C(=C\c3c[nH]c4ccccc34)C2=O)c1`, the EC50 in [11] and in [12] was > 300 µM (not active) each time.
In the case of `Cc1ccc(-n2nc(C)c(/C=N/NC(=O)c3ccc(O)cc3O)c2O)cc1`, the EC50 in [11] was 76.9 µM (active); in data set [12], 22 µM (active). In addition, in data set [3], the IC50 is 4.44 µM (active).
As to `COc1cc(/C=N/NC(=O)CN2CC(c3ccccc3)CC2=O)ccc1OC(=O)N(C)C` (configuration not stated), the AC50 result in data set [1] was “inconclusive”; in data set [2], 22.4 µM (inconclusive).

A word on the AC50: it is the concentration at which the activity in the assay is half-maximal. In general, IC50 refers to the concentration that gives 50% inhibition. A word on the EC50: it is the concentration that produces a half-maximal response.
